# From patent US20210308089A1, “METHODS OF TREATING AND/OR PREVENTING VIRAL INFECTIONS AND/OR DISEASES CAUSED BY VIRUSES IN A SUBJECT IN NEED THEREOF” (priority 2020, published 2021)
# System: patients of the REDUCE-IT and earlier EPA placebo-controlled trials
# Test: Example 3: adverse events by risk ratio, icosapent ethyl vs placebo (candidate categories; infectious disease terms of interest)
# Conditions: for NNT / Risk Ratio (95% CI) / ARR: ISS
# [1] = Frequent Bowel Movements, Any Severity
# [2] = Frequent Bowel Movements, Mild Severity
# [3] = Frequent Bowel Movements, Related
# [4] = Huntington's Chorea, Any Severity
# [5] = Huntington's Chorea, Mild Severity
# [6] = ITT, AMR101 N = 4089, placebo 8 of 4090
# [7] = ITT, AMR101 N = 4089, placebo 10 of 4090
# [8] = ITT, AMR101 N = 4089, placebo 22 of 4090
structure (smiles),measurement,setting,value
"CC/C=C\C/C=C\C/C=C\C/C=C\C/C=C\CCCC(=O)OCC [icosapent ethyl, eicosapentaenoic acid ethyl ester]",NNT,"Flatulence, Mild Severity",129
same,Risk Ratio (95% CI),"Flatulence, Mild Severity",0.424 (0.125 to 1.440) 3
same,ARR,"Flatulence, Related",−0.8%
same,NNT,"Flatulence, Related",121
same,Risk Ratio (95% CI),"Flatulence, Related",0.463 (0.152 to 1.408) 3
same,ARR,[1],−0.6%
same,NNT,[1],173
same,Risk Ratio (95% CI),"Frequent Bowel Movements, Any Severity, case counts given",[0 drug vs 3 PBO]
same,ARR,[2],−0.4%
same,NNT,[2],259
same,Risk Ratio (95% CI),"Frequent Bowel Movements, Mild Severity, case counts given",[0 drug vs 2 PBO]
same,ARR,[3],−0.6%
same,NNT,[3],173
same,Risk Ratio (95% CI),"Frequent Bowel Movements, Related, case counts given",[0 drug vs 3 PBO]
same,ARR,Hot Flush,−0.3%
same,NNT,Hot Flush,292
same,Risk Ratio (95% CI),Hot Flush,0.556 (0.125 to 2.474) 3
same,ARR,[4],−1.3%
same,NNT,[4],77
same,Risk Ratio (95% CI),[4],0.247 (0.067 to 0.908) 4
same,ARR,[5],−0.9%
same,NNT,[5],109
same,Risk Ratio (95% CI),[5],0.318 (0.083 to 1.223)4
same,ARR,Menorrhagia,−0.6%
same,NNT,Menorrhagia,159
same,Risk Ratio (95% CI),Menorrhagia,0.185 (0.021 to 1.653) 5
same,ARR,"Muscle spasms, Related",−0.0%
same,NNT,"Muscle spasms, Related",2007
same,Risk Ratio (95% CI),"Muscle spasms, Related",0.741 (0.046 to 11.826) 2
same,ARR,"Nasopharyngitis, Any Severity",−2.3%
same,NNT,"Nasopharyngitis, Any Severity",43
same,Risk Ratio (95% CI),"Nasopharyngitis, Any Severity",0.588 (0.344 to 1.004) 3
same,ARR,"Nasopharyngitis, Mild Severity",−2.3%
same,NNT,"Nasopharyngitis, Mild Severity",43
same,Risk Ratio (95% CI),"Nasopharyngitis, Mild Severity",0.494 (0.265 to 0.921) 3
same,ARR,"Weight loss, Related",−0.4%
same,NNT,"Weight loss, Related",230
same,Risk Ratio (95% CI),"Weight loss, Related",0.247 (0.026 to 2.369) 4
same,Bronchiectasis TEAE: % of subjects,"ITT, AMR101 N = 4089, placebo 0.1, Fisher's Exact p 0.5076",(0.1) %
same,Hepatosplenomegaly TEAE: % of subjects,"ITT, AMR101 N = 4089, placebo 0.1, Fisher's Exact p 0.6249",(0.0) %
same,Allergic sinusitis TEAE: % of subjects,"ITT, AMR101 N = 4089, placebo 0.1, Fisher's Exact p 0.6874",(0.0) %
same,Mucosal inflammation TEAE: % of subjects,"ITT, AMR101 N = 4089, placebo 0.1, Fisher's Exact p 0.7264",(0.1) %
same,Systemic inflammatory response syndrome TEAE: % of subjects,"ITT, AMR101 N = 4089, placebo 0.2, Fisher's Exact p 0.1092",(0.0) %
same,Splenomegaly TEAE: % of subjects,"ITT, AMR101 N = 4089, placebo 0.2, Fisher's Exact p 0.1792",(0.1) %
same,Neutropenia TEAE: % of subjects,"ITT, AMR101 N = 4089, placebo 0.2, Fisher's Exact p 0.2262",(0.1) %
same,Gingivitis TEAE: % of subjects,"ITT, AMR101 N = 4089, placebo 0.2, Fisher's Exact p 0.3013",(0.1) %
same,Orthopnea TEAE: % of subjects,"ITT, AMR101 N = 4089, placebo 0.2, Fisher's Exact p 0.3873",(0.1) %
same,Helicobacter infection TEAE: % of subjects,"ITT, AMR101 N = 4089, placebo 0.2, Fisher's Exact p 0.4235",(0.1) %
same,Herpes simplex TEAE: % of subjects,"ITT, AMR101 N = 4089, placebo 0.2, Fisher's Exact p 0.5807",(0.1) %
same,Vulvovaginal mycotic infection TEAE: % of subjects,"ITT, AMR101 N = 4089, placebo 0.3, Fisher's Exact p 0.2097",(0.1) %
same,Bronchitis chronic TEAE: % of subjects,"ITT, AMR101 N = 4089, placebo 0.3, Fisher's Exact p 0.5029",(0.2) %
same,Hepatobiliary disorders (SOC) TEAE: % of subjects,"ITT, AMR101 N = 4089, placebo 0.5, Fisher's Exact p 0.0037",(0.1) %
same,Hepatomegaly TEAE: % of subjects,"ITT, AMR101 N = 4089, placebo 0.5, Fisher's Exact p 0.0065",(0.1) %
same,Atelectasis TEAE: % of subjects,"ITT, AMR101 N = 4089, placebo 0.5, Fisher's Exact p 0.0795",(0.3) %
same,Emphysema TEAE: % of subjects,"ITT, AMR101 N = 4089, placebo 0.5, Fisher's Exact p 0.2144",(0.3) %
same,Rhinitis TEAE: % of subjects,"ITT, AMR101 N = 4089, placebo 0.5, Fisher's Exact p 0.4166",(0.4) %
same,Tooth infection TEAE: % of subjects,"ITT, AMR101 N = 4089, placebo 0.7, Fisher's Exact p 0.2514",(0.5) %
same,Influenza like illness TEAE: % of subjects,"ITT, AMR101 N = 4089, placebo 0.7, Fisher's Exact p 0.6709",(0.6) %
same,Thrombocytopenia TEAE: % of subjects,"ITT, AMR101 N = 4089, placebo 0.8, Fisher's Exact p 0.3393",(0.6) %
same,Wheezing TEAE: % of subjects,"ITT, AMR101 N = 4089, placebo 0.9, Fisher's Exact p 0.1162",(0.6) %
same,General disorders and administration site conditions (SOC) TEAE: % of subjects,"ITT, AMR101 N = 4089, placebo 1.0, Fisher's Exact p 0.1800",(0.7) %
same,Sepsis TEAE: % of subjects,"ITT, AMR101 N = 4089, placebo 1.0, Fisher's Exact p 0.3535",(0.8) %
same,Blood and lymphatic system disorders (SOC) TEAE: % of subjects,"ITT, AMR101 N = 4089, placebo 1.2, Fisher's Exact p 0.0279",(0.7) %
same,Hepatosplenomegaly TEAE: number of subjects,"ITT, AMR101 N = 4089, placebo 3 of 4090",1
same,Allergic sinusitis TEAE: number of subjects,"ITT, AMR101 N = 4089, placebo 4 of 4090",2
same,Mucosal inflammation TEAE: number of subjects,"ITT, AMR101 N = 4089, placebo 5 of 4090",3
same,Cough TEAE: % of subjects,"ITT, AMR101 N = 4089, placebo 5.9, Fisher's Exact p 1.0000",(5.9) %
same,Bronchiectasis TEAE: number of subjects,"ITT, AMR101 N = 4089, placebo 6 of 4090",3
same,Influenza TEAE: % of subjects,"ITT, AMR101 N = 4089, placebo 6.6, Fisher's Exact p 0.7541",(6.4) %
same,Pneumonia TEAE: % of subjects,"ITT, AMR101 N = 4089, placebo 6.8, Fisher's Exact p 0.5627",(6.4) %
same,"Respiratory, thoracic and mediastinal disorders (SOC) TEAE: % of subjects","ITT, AMR101 N = 4089, placebo 7.8, Fisher's Exact p 0.2050",(7.0) %
same,Herpes simplex TEAE: number of subjects,[6],5
same,Neutropenia TEAE: number of subjects,[6],3
same,Orthopnea TEAE: number of subjects,[6],4
same,Systemic inflammatory response syndrome TEAE: number of subjects,[6],2
same,Helicobacter infection TEAE: number of subjects,"ITT, AMR101 N = 4089, placebo 9 of 4090",5
same,Gingivitis TEAE: number of subjects,[7],5
same,Splenomegaly TEAE: number of subjects,[7],4
same,Vulvovaginal mycotic infection TEAE: number of subjects,"ITT, AMR101 N = 4089, placebo 11 of 4090",5
same,Bronchitis chronic TEAE: number of subjects,"ITT, AMR101 N = 4089, placebo 12 of 4090",8
same,Infections and infestations (SOC) TEAE: % of subjects,"ITT, AMR101 N = 4089, placebo 14.6, Fisher's Exact p 0.2676",(13.8) %
same,Hepatomegaly TEAE: number of subjects,"ITT, AMR101 N = 4089, placebo 19 of 4090",5
same,Emphysema TEAE: number of subjects,"ITT, AMR101 N = 4089, placebo 20 of 4090",12
same,Subjects with at least one Infectious Disease TEAE of Interest: % of subjects,"ITT, AMR101 N = 4089, placebo 21.6, Fisher's Exact p 0.0562",(19.9) %
same,Atelectasis TEAE: number of subjects,[8],11
same,Hepatobiliary disorders (SOC) TEAE: number of subjects,[8],6
same,Rhinitis TEAE: number of subjects,[8],16
same,Influenza like illness TEAE: number of subjects,"ITT, AMR101 N = 4089, placebo 27 of 4090",23
same,Tooth infection TEAE: number of subjects,"ITT, AMR101 N = 4089, placebo 29 of 4090",20
same,Thrombocytopenia TEAE: number of subjects,"ITT, AMR101 N = 4089, placebo 31 of 4090",23
same,Wheezing TEAE: number of subjects,"ITT, AMR101 N = 4089, placebo 36 of 4090",23
same,General disorders and administration site conditions (SOC) TEAE: number of subjects,"ITT, AMR101 N = 4089, placebo 40 of 4090",28
same,Sepsis TEAE: number of subjects,"ITT, AMR101 N = 4089, placebo 42 of 4090",33
same,Blood and lymphatic system disorders (SOC) TEAE: number of subjects,"ITT, AMR101 N = 4089, placebo 48 of 4090",28
same,Subjects with at least one Infectious Disease Events of Interest (TEAE terms and labs): % of subjects,"ITT, AMR101 N = 4089, placebo 86.8, Fisher's Exact p <.0001",(83.0) %
same,Cough TEAE: number of subjects,"ITT, AMR101 N = 4089, placebo 241 of 4090",241
same,Influenza TEAE: number of subjects,"ITT, AMR101 N = 4089, placebo 271 of 4090",263
same,Pneumonia TEAE: number of subjects,"ITT, AMR101 N = 4089, placebo 277 of 4090",263
same,"Respiratory, thoracic and mediastinal disorders (SOC) TEAE: number of subjects","ITT, AMR101 N = 4089, placebo 318 of 4090",287
same,Infections and infestations (SOC) TEAE: number of subjects,"ITT, AMR101 N = 4089, placebo 599 of 4090",563
same,Subjects with at least one Infectious Disease TEAE of Interest: number of subjects,"ITT, AMR101 N = 4089, placebo 883 of 4090",812
same,Subjects with at least one Infectious Disease Events of Interest (TEAE terms and labs): number of subjects,"ITT, AMR101 N = 4089, placebo 3549 of 4090",3394
same,AR: ADHD (AE table),R-I,0.0%
same,AR: Allergic sinusitis (AE table),R-I,0.1%
same,AR: Alzheimer's Disease (AE table),R-I,0.1%
same,AR: Asthma (AE table),R-I,1.3%
same,AR: Atelectasis (AE table),R-I,0.4%
